Assay results published in patent publication US9302999B2, “Substituted triazoles as herbicides” (E. I. DU PONT DE NEMOURS AND COMPANY, priority 2012, dated 2016).
Like-named read-outs stand apart in the source and are kept apart here.

How the values were obtained:
Type in all cases: in vivo
[1] = tested on: barnyardgrass (Echinochloa crus-galli); test: Test A pre-/postemergence: barnyardgrass; conditions: Echinochloa crus-galli, 240 h; for pest or weed control at 125 g/ha: 125 g ai/ha; for pest or weed control at 500 g/ha: 500 g ai/ha
Outline: (§1)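 Rating scale 0–100 (100 = complete control), visual, ~10 days after application in the greenhouse. Applications: preemergence directed soil spray; postemergence at 1–2 leaves.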

[2] = tested on: pigweed (Amaranthus retroflexus); test: Test C pre-/postemergence: pigweed
Excerpt: (§2) Seeds of plant species selected from blackgrass (Alopecurus myosuroides), bromegrass, downy (downy bromegrass, Bromus tectorum), foxtail, green (green foxtail, Setaria viridis), ryegrass, Italian (Italian ryegrass, Lolium multiflorum), winter wheat (Triticum aestivum), wild oat (Avena fatua), galium (catchweed bedstraw, Galium aparine), bermudagrass (Cynodon dactylon), surinam grass (Brachiaria decumbens), cocklebur (common cocklebur, Xanthium strumarium), corn (Zea mays), large crabgrass (Digitaria sanguinalis), woolly cupgrass (Eriochloa villosa), foxtail, giant (giant foxtail, Setaria faberii), goosegrass (Eleusine indica), johnsongrass (Sorghum halepense), kochia (Kochia scoparia), lambsquarters (Chenopodium album), morningglory (Ipomoea coccinea), nightshade (eastern black nightshade, Solanum ptycanthum), nutsedge, yellow (yellow nutsedge, Cyperus esculentus), pigweed (Amaranthus retroflexus), ragweed (common ragweed, Ambrosia elation), soybean (Glycine max), common (oilseed) sunflower (Helianthus annuus), Russian thistle (Salsola kali) and velvetleaf (Abutilon theophrasti) were planted into a blend of loam soil and sand and treated preemergence with test chemicals formulated in a non-phytotoxic solvent mixture which included a surfactant.
(§3) At the same time, plants selected from these crop and weed species and also barley (winter barley, Hordeum vulgare), canarygrass (Phalaris minor), chickweed (common chickweed, Stellaria media) windgrass (Apera spica-venti) and deadnettle (henbit deadnettle, Lamium amplexicaule) were planted in pots containing Redi-Earth® planting medium (Scotts Company, 14111 Scottslawn Road, Marysville, Ohio 43041) comprising spaghnum peat moss, vermiculite, wetting agent and starter nutrients and treated with postemergence applications of test chemicals formulated in the same manner. Plants ranged in height from 2 to 18 cm (1- to 4-leaf stage) for postemergence treatments.
(§4) Treated plants and controls were maintained in a greenhouse for 13 to 15 days, after which time all species were compared to controls and visually evaluated. Plant response ratings, summarized in Table C, are based on a scale of 0 to 100 where 0 is no effect and 100 is complete control. A dash (-) response means no test result.

[3] = tested on: large crabgrass (Digitaria sanguinalis); test: Test C pre-/postemergence: large crabgrass
Excerpt: as §2, §3, §4

[4] = tested on: morningglory (Ipomoea spp.); test: Test A pre-/postemergence: morningglory; conditions: Ipomoea, 240 h; for pest or weed control at 125 g/ha: 125 g ai/ha; for pest or weed control at 500 g/ha: 500 g ai/ha
Outline: as §1

corn (Zea mays) = test: Test A pre-/postemergence: corn; conditions: Zea mays, 240 h
Outline: as §1

[5] = tested on: nutsedge, yellow (yellow nutsedge, Cyperus esculentus); test: Test C pre-/postemergence: nutsedge, yellow
Excerpt: as §2, §3, §4

kochia (Kochia scoparia) = test: Test C pre-/postemergence: kochia
Excerpt: as §2, §3, §4

[6] = tested on: ryegrass, Italian (Italian ryegrass, Lolium multiflorum); test: Test C pre-/postemergence: ryegrass, Italian
Excerpt: as §2, §3, §4

[7] = tested on: johnsongrass (Sorghum halepense); test: Test C pre-/postemergence: johnsongrass
Excerpt: as §2, §3, §4

[8] = tested on: galium (catchweed bedstraw, Galium aparine); test: Test C pre-/postemergence: galium
Outline: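 Visual injury scored 0–100 (100 = complete control) against untreated controls after 13–15 greenhouse days. Surfactant-containing solvent formulations applied either to soil after sowing (loam/sand) or over 1- to 4-leaf plants, 2–18 cm tall.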

[9] = tested on: winter wheat (Triticum aestivum); test: Test C pre-/postemergence: winter wheat
Excerpt: as §2, §3, §4

[10] = Postemergence, 31 g ai/ha, scale 0 to 100 (0 no effect, 100 complete control)
[11] = Postemergence, 62 g ai/ha, scale 0 to 100 (0 no effect, 100 complete control)
[12] = Postemergence, 125 g ai/ha, scale 0 to 100, 0 no effect, 100 complete control
[13] = Postemergence, 250 g ai/ha, scale 0 to 100
[14] = Preemergence, 31 g ai/ha, scale of 0 to 100, 0 is no effect, 100 is complete control
[15] = Preemergence, 62 g ai/ha, scale of 0 to 100, 0 is no effect, 100 is complete control
[16] = Preemergence, 125 g ai/ha, scale 0 to 100, 0 no effect, 100 complete control
[17] = Preemergence, 250 g ai/ha, scale 0 to 100, 0 no effect, 100 complete control

## FC(F)(F)COc1nn(-c2ccc(C(F)(F)F)cc2)nc1Cc1ccnc(C(F)(F)F)c1 [Compound 14, 4-[[5-(2,2,2-trifluoroethoxy)-2-[4-(trifluoromethyl)phenyl]-2H-1,2,3-triazol-4-yl]methyl]-2-(trifluoromethyl)pyridine]
[1]; post-emergence, Postemergence, 0 to 100 scale, 0 is no effect, 100 is complete control, read-out: Barnyardgrass plant response rating
  pest or weed control at 125 g/ha: 80%
[1]; post-emergence, Postemergence, visual rating on 0 to 100 scale (0 no effect, 100 complete control), approximately ten days, read-out: Barnyardgrass plant response rating
  pest or weed control at 500 g/ha: 90%
[1]; pre-emergence, Preemergence, 0 to 100 scale (0 no effect, 100 complete control), read-out: Plant response rating, Barnyardgrass
  pest or weed control at 125 g/ha: 70%
[1]; pre-emergence, Preemergence, 0 to 100 scale, 0 is no effect, 100 is complete control, read-out: Plant response rating, Barnyardgrass
  pest or weed control at 500 g/ha: 90%
[2]; [10]
  Plant response rating, Pigweed: 45
[2]; [11]
  Plant response rating, Pigweed: 60
[2]; [12]
  Plant response rating, Pigweed: 80
[2]; [13]
  Plant response rating, Pigweed: 85
[2]; [14]
  Plant response rating, Pigweed: 100
[2]; [15]
  Plant response rating, Pigweed: 100
[2]; [16]
  Plant response rating, Pigweed: 100
[2]; [17]
  Plant response rating, Pigweed: 100
[3]; [10]
  Plant response rating, Crabgrass, Large: 10
[3]; [11]
  Plant response rating, Crabgrass, Large: 45
[3]; [12]
  Plant response rating, Crabgrass, Large: 45
[3]; [13]
  Plant response rating, Crabgrass, Large: 60
[3]; [14]
  Plant response rating, Crabgrass, Large: 95
[3]; [15]
  Plant response rating, Crabgrass, Large: 100
[3]; [16]
  Plant response rating, Crabgrass, Large: 100
[3]; [17]
  Plant response rating, Crabgrass, Large: 100
[4]; post-emergence, Postemergence, 0 to 100 scale, 0 is no effect, 100 is complete control, read-out: Morningglory plant response rating
  pest or weed control at 125 g/ha: 80%
[4]; post-emergence, Postemergence, visual rating on 0 to 100 scale (0 no effect, 100 complete control), approximately ten days, read-out: Morningglory plant response rating
  pest or weed control at 500 g/ha: 100%
[4]; pre-emergence, Preemergence, 0 to 100 scale (0 no effect, 100 complete control), read-out: Plant response rating, Morningglory
  pest or weed control at 125 g/ha: 60%
[4]; pre-emergence, Preemergence, 0 to 100 scale, 0 is no effect, 100 is complete control, read-out: Plant response rating, Morningglory
  pest or weed control at 500 g/ha: 80%
Corn (Zea mays); post-emergence, Postemergence, 125 g ai/ha, 0 to 100 scale, 0 is no effect, 100 is complete control, read-out: Corn plant response rating
  plant injury at 125 g/ha: 20%
Corn (Zea mays); post-emergence, Postemergence, 500 g ai/ha, visual rating on 0 to 100 scale (0 no effect, 100 complete control), approximately ten days, read-out: Corn plant response rating
  plant injury at 500 g/ha: 40%
Corn (Zea mays); pre-emergence, Preemergence, 125 g ai/ha, 0 to 100 scale (0 no effect, 100 complete control)
  Corn plant response rating (crop injury, 0 = no effect, 100 = complete kill) at 125 g/ha: 20%
Corn (Zea mays); pre-emergence, Preemergence, 500 g ai/ha, 0 to 100 scale, 0 is no effect, 100 is complete control
  Corn plant response rating (crop injury, 0 = no effect, 100 = complete kill) at 500 g/ha: 30%
[5]; [10]
  Plant response rating, Nutsedge, Yellow: 0
[5]; [11]
  Plant response rating, Nutsedge, Yellow: 0
[5]; [12]
  Plant response rating, Nutsedge, Yellow: 0
[5]; [13]
  Plant response rating, Nutsedge, Yellow: 0
[5]; [14]
  Plant response rating, Nutsedge, Yellow: 0
[5]; [15]
  Plant response rating, Nutsedge, Yellow: 0
[5]; [16]
  Plant response rating, Nutsedge, Yellow: 0
[5]; [17]
  Plant response rating, Nutsedge, Yellow: 0
Kochia (Kochia scoparia); [10]
  Plant response rating, Kochia: 90
Kochia (Kochia scoparia); [11]
  Plant response rating, Kochia: 95
Kochia (Kochia scoparia); [12]
  Plant response rating, Kochia: 95
Kochia (Kochia scoparia); [13]
  Plant response rating, Kochia: 95
Kochia (Kochia scoparia); [14]
  Plant response rating, Kochia: 0
Kochia (Kochia scoparia); [15]
  Plant response rating, Kochia: 0
Kochia (Kochia scoparia); [16]
  Plant response rating, Kochia: 75
Kochia (Kochia scoparia); [17]
  Plant response rating, Kochia: 85
[6]; [10]
  Plant response rating, Ryegrass, Italian: 30
[6]; [11]
  Plant response rating, Ryegrass, Italian: 35
[6]; [12]
  Plant response rating, Ryegrass, Italian: 35
[6]; [13]
  Plant response rating, Ryegrass, Italian: 40
[6]; [14]
  Plant response rating, Ryegrass, Italian: 10
[6]; [15]
  Plant response rating, Ryegrass, Italian: 35
[6]; [16]
  Plant response rating, Ryegrass, Italian: 60
[6]; [17]
  Plant response rating, Ryegrass, Italian: 85
[7]; [10]
  Plant response rating, Johnsongrass: 20
[7]; [11]
  Plant response rating, Johnsongrass: 20
[7]; [12]
  Plant response rating, Johnsongrass: 55
[7]; [13]
  Plant response rating, Johnsongrass: 75
[7]; [14]
  Plant response rating, Johnsongrass: 20
[7]; [15]
  Plant response rating, Johnsongrass: 45
[7]; [16]
  Plant response rating, Johnsongrass: 80
[7]; [17]
  Plant response rating, Johnsongrass: 85
[8]; [10]
  Plant response rating, Galium: 60
[8]; [11]
  Plant response rating, Galium: 80
[8]; [12]
  Plant response rating, Galium: 80
[8]; [13]
  Plant response rating, Galium: 80
[8]; [14]
  Plant response rating, Galium: 20
[8]; [15]
  Plant response rating, Galium: 90
[8]; [16]
  Plant response rating, Galium: 100
[8]; [17]
  Plant response rating, Galium: 100
[9]; [10]
  Plant response rating, Wheat: 30
[9]; [11]
  Plant response rating, Wheat: 35
[9]; [12]
  Plant response rating, Wheat: 40
[9]; [13]
  Plant response rating, Wheat: 45
[9]; [14]
  Plant response rating, Wheat: 0
[9]; [15]
  Plant response rating, Wheat: 15
[9]; [16]
  Plant response rating, Wheat: 35
[9]; [17]
  Plant response rating, Wheat: 45
